Laboratory results published in PubChem BioAssay (NCI).
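Test compounds were applied to cells in 96-well plates for 48 hours at 5 doses. The concentration for full growth arrest is given as TGI.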

What was measured:
Assay in all cases: inhibition of tumour cell growth, NCI panel, 48 h
[1] = tested on: MOLT-4 leukemia
[2] = tested on: HOP-92 NSCLC
[3] = tested on: SK-OV-3 ovarian
[4] = tested on: SNB-75 CNS
[5] = tested on: COLO 205 colon
[6] = tested on: OVCAR-3 ovarian
[7] = tested on: HCT-15 colon
[8] = tested on: ACHN renal
[9] = tested on: OVCAR-4 ovarian
[10] = tested on: NCI-H460 lung
[11] = tested on: UACC-62 melanoma
[12] = tested on: NCI-H226 lung
[13] = tested on: OVCAR-5 ovarian
[14] = tested on: OVCAR-8 ovarian
[15] = tested on: SW-620 colon
[16] = tested on: M14 melanoma
[17] = tested on: MDA-N
[18] = tested on: RXF 393 renal
[19] = tested on: BT-549 breast

Row | Compound | TGI [1] | TGI [2] | TGI [3] | TGI [4] | TGI [5] | TGI [6] | TGI [7] | TGI [8] | TGI [9] | TGI [10] | TGI [11] | TGI [12] | TGI [13] | TGI [14] | TGI [15] | TGI [16] | TGI [17] | TGI [18] | TGI [19]
1 | CC(=O)O[C@H]1CCN2C(=O)C=CC(OCc3ccccc3)C12 (some centres undefined) | > 100 µM | > 100 µM | > 100 µM | > 100 µM | > 100 µM | > 100 µM | > 100 µM | > 100 µM | > 100 µM | > 100 µM | > 100 µM | > 100 µM | > 100 µM | > 100 µM | > 100 µM | > 100 µM |  |  | 
2 | Cc1c(/C=N/NC(=S)Nc2ccc(Cl)cc2)c(=O)n(-c2ccccc2)n1C | > 100 µM |  | 35.8 µM | 35.8 µM | > 100 µM | > 65.3 µM | > 100 µM | 31.9 µM | > 57.1 µM | > 61 µM | > 79 µM | 53.8 µM | > 100 µM | > 60.6 µM | > 100 µM | > 100 µM | > 100 µM | 28 µM | 
3 | CN(C)Cc1cc(C(=O)/C=C/c2ccc(Cl)c(Cl)c2)cc(CN(C)C)c1O | 10.5 µM | 3.85 µM |  |  | 2.65 µM | 5.46 µM | 12.7 µM | 11.6 µM | 15.4 µM | 7.9 µM |  | 13.5 µM | 20.9 µM | 4.9 µM | 3.19 µM | 4.34 µM | 10.9 µM | 11.1 µM | 
4 | COc1cc(CC2c3cc(OC)c(OC)cc3CCN2C)ccc1O (centres undefined) | > 100 µM |  |  | > 100 µM |  | > 100 µM | > 100 µM | > 100 µM | > 100 µM | > 100 µM |  |  | > 100 µM | > 100 µM | > 100 µM | > 100 µM |  |  | 
5 | CC(=O)Nc1ccc(-c2nnc(SCC(=O)Nc3cccc(Cl)c3)o2)cc1 | 51.8 µM |  | > 100 µM | 71.9 µM | 31 µM | 22.1 µM | > 100 µM | 28.9 µM | 42.3 µM | 51.2 µM | 33.9 µM | 48.8 µM | 40.3 µM | > 100 µM | 28 µM | 29.5 µM |  | 31.4 µM | 
6 | NS(=O)(=O)c1ccc(Nc2c3ccccc3nc3c(C(=O)N4CCN(CCO)CC4)cccc23)cc1 | > 100 µM | > 100 µM | > 100 µM | > 100 µM | > 100 µM | > 100 µM | > 100 µM | > 100 µM | > 100 µM | > 100 µM | > 100 µM | > 100 µM | > 100 µM | > 100 µM | > 100 µM | > 100 µM |  | > 100 µM | 
7 | CC(=O)OCCOCNC(=S)N/N=C/c1cc([N+](=O)[O-])ccc1O |  | > 100 µM | > 100 µM | > 100 µM | > 100 µM | > 100 µM | > 100 µM | > 100 µM | > 100 µM | > 100 µM | > 100 µM | > 100 µM | > 100 µM | > 100 µM | > 100 µM | > 100 µM |  | > 100 µM | 
8 | COc1cc2oc(-c3ccccc3)cc(=O)c2c(O)c1C | > 100 µM | > 100 µM | > 100 µM | > 100 µM | > 100 µM | > 100 µM | > 100 µM | > 100 µM | > 100 µM | > 100 µM | > 100 µM | > 100 µM | > 100 µM | > 100 µM | > 100 µM | > 100 µM |  |  | 
9 | O=C(/C=C/c1ccccc1O)c1ccc([N+](=O)[O-])cc1 | 76.6 µM | > 100 µM | 70.7 µM | 31.6 µM | 27.4 µM | 25.5 µM | 46.8 µM | 26.4 µM | 25.1 µM | 50.5 µM | 31.2 µM | 46.1 µM | 41.1 µM | 29.1 µM | 31.3 µM | 52.2 µM |  | 24.3 µM | 
10 | CN/C=C(\C(=O)c1ccc(OC)c(OC)c1)c1ccc(OC)cc1 | 62 µM |  | > 100 µM | > 100 µM | 38.3 µM |  | 28.2 µM | 75.1 µM | 80.1 µM | 63.2 µM | 49.6 µM | 41.5 µM |  | 30.4 µM | 37.5 µM | 37 µM |  | 33.2 µM | 
11 | COc1cc2cc(C(=O)N3CC(CCl)c4ccc([N+](=O)[O-])cc43)[nH]c2c(OC)c1OC (centres undefined) | > 100 µM | > 100 µM |  | > 100 µM | > 100 µM | > 100 µM | > 100 µM | > 100 µM | > 100 µM |  | > 100 µM |  | > 100 µM | > 100 µM | > 100 µM | > 100 µM |  | > 100 µM | > 100 µM
12 | COC(=O)[C@@]1(C)C(=O)CC[C@@H]1C=O | > 100 µM |  | > 100 µM |  | > 100 µM | > 100 µM | > 100 µM | > 100 µM | > 100 µM | > 100 µM | > 100 µM | > 100 µM | > 100 µM | > 100 µM | > 100 µM | > 100 µM |  |  | 
13 | COc1cccc(/C=C/C(=O)c2sc(C(N)=S)nc2C)c1O | > 82.8 µM | > 100 µM | > 100 µM | > 100 µM | > 100 µM | > 100 µM | > 76.5 µM | > 100 µM | > 100 µM | > 100 µM | > 100 µM | > 100 µM | > 100 µM | > 100 µM | 86.3 µM | > 100 µM |  | > 100 µM | 
14 | COc1ccc(C(=O)c2c3cc(OC)c(OC)c(OC)c3cc[n+]2C)cc1 | > 100 µM |  | > 100 µM | 95.7 µM |  |  |  | > 100 µM |  | > 100 µM |  | 65.2 µM | > 100 µM | > 100 µM | > 100 µM | > 100 µM |  | > 100 µM | 
15 | C=CCC1(Sc2ccccn2)Sc2ccc3ccccc3c2-c2c(ccc3ccccc23)S1 | > 100 µM | > 100 µM | > 100 µM | > 100 µM | > 100 µM | > 100 µM | > 100 µM | > 100 µM | > 100 µM | > 100 µM | > 100 µM | > 100 µM | > 100 µM | > 100 µM | > 100 µM | > 100 µM |  | > 100 µM | 
